{"source": "paper PMC10384408", "about": "“Anticancer Tungstenocenes with a Diverse Set of (O,O–), (O,S–) and (O,N–) Chelates—A Detailed Biological Study Using an Improved Evaluation via 3D Spheroid Models” (Pharmaceutics, 2023)", "key": {"HT29 cells": {"tested_on": "HT29 cells", "assay": "Resazurin assay, HT29 2D monolayer", "type": "cell-based, human", "conditions": "96 h", "protocol": "(§1) CH1/PA-1 (ovarian teratocarcinoma), SW480 (colon carcinoma) and A549 (non-small cell lung cancer) cells were maintained as described in the reference. IMR-90 human fetal lung fibroblasts (from the European Collection of Authenticated Cell Cultures, Porton Down, Salisbury, UK) were cultured in Stable Cell^TM DMEM/F12 supplemented with 0.01 mg/mL human recombinant insulin (both purchased from Sigma-Aldrich) and 10% fetal bovine serum (FBS, BioWest, Nuaillé, France). Human colon carcinoma cell lines HCT116 and HT29 (both kindly provided by the Institute of Cancer Research, Department of Medicine I, Medical University of Vienna, Austria) were cultured in McCoy’s 5a medium supplemented with 4 mM L-glutamine (both purchased from Sigma-Aldrich) and 10% FBS. MCF-7 human breast adenocarcinoma cells (kindly provided by M. Ogris, Department of Pharmaceutical Sciences, University of Vienna, Austria) were maintained in DMEM (high glucose) supplemented with 4 mM L-glutamine, 0.1 mg/mL human insulin (all purchased from Sigma-Aldrich) and 10% FBS. All cell lines were grown as monolayers in 75 cm^2 culture flasks (CytoOne, Starlab, Hamburg, Germany) at 37 °C in a humidified atmosphere containing 5% CO2.\n(§2) For the resazurin assay in monolayer cultures, cells were seeded into 96-well microculture plates (CytoOne, tissue culture treated, Starlab, Hamburg, Germany) in densities of 2 × 10^3 HCT116, 2 × 10^3 HT29 and 4 × 10^3 MCF-7 cells per well (each in 100 µL). For tests in 3D cultures, spheroids were grown as described above. After 24 h (for monolayers) or 4 days (for spheroids) the test compounds in the appropriate medium were added in serial dilution to the plates to obtain a total volume of 200 µL/well. Wells without cells, containing medium and resazurin (Alfa Aesar, Thermo Fisher, Kandel, Germany) solution were used as blanks. After 96 h exposure 20 µL of the resazurin solution (440 µM) were added to each well, followed by a 4 h (2D) or 12 h (3D) incubation period. Resorufin fluorescence was quantified at 530 nm (and a reference wavelength of 620 nm) by using a microplate reader (Synergy HT, BioTek) with Gen5^TM 3.10 software (BioTek)."}, "[1]": {"tested_on": "IMR-90 human lung fibroblasts", "assay": "MTT cytotoxicity assay, IMR-90 fibroblasts", "type": "cell-based", "conditions": "exposure time 96 h, mean ± SD", "protocol": "as §1\nExponentially growing cells were plated into 96-well microculture plates (CytoOne, tissue culture treated, Starlab, Hamburg, Germany) in densities of 1 × 10^3 CH1/PA-1, 2 × 10^3 SW480, 3 × 10^3 A549 and 7 × 10^3 IMR-90 cells per well (each in 100 µL). After a 24 h preincubation, drugs were added in serial dilution to give a final volume of 200 µL/well and exposed for 96 h. At the end of the exposure, the drug solutions were replaced by 100 µL RPMI 1640/MTT mixture (7:1 ratio). MTT (3-(4,5-dimethylthiazol-2-yl)-2,5-diphenyl-2H-tetrazolium bromide), (Acros Organics, Geel, Belgium) solution was prepared in phosphate-buffered saline (5 mg/mL) and mixed with RPMI1640 medium supplemented with 4 mM L-glutamine (both from Sigma-Aldrich) and 10% FBS. After 4 h incubation, the formazan crystals were solubilized in 150 µL of DMSO per well. Absorbance was measured at 550 nm (and at 690 nm as a reference) with a microplate reader (ELx808, BioTek, Winoosky, VT, USA) and Gen5^TM 3.08 software (BioTek). The 50% inhibitory concentrations (IC50) relative to untreated controls were interpolated from concentration-effect curves. At least three biologically and technically independent experiments were performed."}, "[2]": {"tested_on": "HCT116, HT29 and MCF-7 cell lines", "assay": "ROS detection (DCFH-DA assay)", "type": "cell-based, human", "conditions": "2, 20, 100 and 200 µM, 2 h", "protocol": "Reactive oxygen species (ROS) generation was measured by means of the DCFH-DA assay. […] On the following day, cells were washed with 200 µL Hanks’ balanced salt solution (HBSS, Sigma-Aldrich, containing 1% FBS) and stained with 100 µL of 25 µM DCFH-DA (2′,7′-dichlorofluorescein diacetate, Sigma-Aldrich) in HBSS (containing 1% FBS) for 45 min at 37 °C in the dark. After the incubation period, cells were washed with 200 µL HBSS (1% FBS) and loaded with compounds at concentrations of 2 µM, 20 µM, 100 µM and 200 µM in 200 µL phenol-red-free MEM (1% FBS) in triplicates. As positive controls, cells were treated with 200 µM and 400 µM tert-butylhydroperoxide (Sigma-Aldrich). Wells containing only phenol-red-free medium with 1% FBS were used as blanks, and non-drug treated, cell containing wells as reference values. Fluorescence (excitation: 485/20 nm, emission: 516/20 nm) was recorded in 10 min intervals with the Synergy HT reader (BioTek) over 2 h."}, "HCT116 spheroids": {"tested_on": "HCT116 spheroids", "assay": "Spheroid growth, HCT116", "type": "cell-based, human", "conditions": "10 µM, 96 h treatment", "protocol": "(§3) For growing multicellular tumor spheroids, 400 HCT116, 400 HT29 or 800 MCF-7 cells per well were plated into round-bottom ultra-low attachment 96-well plates (Corning, Glendale, AZ, USA) in the media described above and incubated at 37 °C for 96 h. Spheroids were treated with 10 µM of the two most cytotoxic compounds 3 and 4 for another 96 h. The diameters of the spheroids were measured with Cell^F software under a CKX41 Olympus microscope before treatment and in constant daily intervals over the 96 h treatment period. For statistical analysis the t-test with Welsh’s correction was implemented in GraphPad Prism software (Version 6.01)."}, "MCF-7 cells": {"tested_on": "MCF-7 cells", "assay": "Annexin V-FITC/PI apoptosis assay, MCF-7", "conditions": "MCF-7, 24 h; for ∑apoptotic cells [%]: sum of early and late"}, "[3]": {"tested_on": "MCF-7 multicellular tumor spheroids", "assay": "Resazurin assay, MCF-7 3D spheroids", "type": "cell-based, human", "conditions": "96 h", "protocol": "as §1, §3, §2"}, "[4]": {"assay": "Aqueous stability by UV/Vis in PBS", "type": "physicochemical", "conditions": "24 h, 293 K, 1 vol% DMSO", "protocol": "Stock solutions in DMSO of compounds 1–10 were utilized to determine the solubility in PBS by adding 1 vol% of the stock solution to a suitable amount of PBS. […] UV/Vis data were recorded on a Perkin Elmer Lambda 650 UV/Vis Spectrophotometer with a Peltier element for temperature control.\nIn order to examine the stability of the compounds in aqueous solution, UV/Vis measurements were performed every hour during 24 h at 293 K. Solutions of compounds 1–10 were prepared in PBS (10%) from a previously prepared DMSO stock solution of each compound. The total concentration of DMSO was 1 vol% for the final complex solutions of 1–10."}}}
{"compound": "F[P-](F)(F)(F)(F)F.[O-]c1c(-c2ccc(Cl)cc2)oc2ccccc2c1=S.[W+4].c1cc[cH-]c1.c1cc[cH-]c1", "note": "[Compound 4, Bis(η^5-cyclopentadienyl)[2-(4-chlorophenyl)-3-(oxo-κO)-4(H)-chromen-4-thionato-κS]tungsten(IV) hexafluorophosphate]", "values": [{"measurement": "IC50", "setting": "HT29 cells", "value": "5.5 ± 1", "unit": "µM"}, {"measurement": "IC50", "setting": "[1]", "value": "11 ± 2", "unit": "µM"}, {"measurement": "intracellular ROS levels", "setting": "[2]", "value": "concentration-dependent anti-oxidative properties"}, {"measurement": "spheroid growth", "setting": "HCT116 spheroids", "value": "completely stopped spheroid growth"}, {"measurement": "early apoptotic cells [%] AV+ / PI-", "setting": "MCF-7 cells; 2 µM", "value": "1.0 ± 0.8", "unit": "%"}, {"measurement": "late apoptotic cells [%] AV+ / PI+", "setting": "MCF-7 cells; 2 µM", "value": "3.4 ± 1.2", "unit": "%"}, {"measurement": "necrotic cells [%] AV- / PI+", "setting": "MCF-7 cells; 2 µM", "value": "1.8 ± 0.0", "unit": "%"}, {"measurement": "viable cells [%] AV- / PI-", "setting": "MCF-7 cells; 2 µM", "value": "93.9 ± 2.1", "unit": "%"}, {"measurement": "∑apoptotic cells [%]", "setting": "MCF-7 cells; 2 µM", "value": 4.4, "unit": "%"}, {"measurement": "early apoptotic cells [%] AV+ / PI-", "setting": "MCF-7 cells; 10 µM", "value": "1.2 ± 0.5", "unit": "%"}, {"measurement": "late apoptotic cells [%] AV+ / PI+", "setting": "MCF-7 cells; 10 µM", "value": "12.0 ± 2.0", "unit": "%"}, {"measurement": "necrotic cells [%] AV- / PI+", "setting": "MCF-7 cells; 10 µM", "value": "11.7 ± 4.7", "unit": "%"}, {"measurement": "viable cells [%] AV- / PI-", "setting": "MCF-7 cells; 10 µM", "value": "75.2 ± 2.2", "unit": "%"}, {"measurement": "∑apoptotic cells [%]", "setting": "MCF-7 cells; 10 µM", "value": 13.2, "unit": "%"}, {"measurement": "early apoptotic cells [%] AV+ / PI-", "setting": "MCF-7 cells; 20 µM", "value": "1.0 ± 0.4", "unit": "%"}, {"measurement": "late apoptotic cells [%] AV+ / PI+", "setting": "MCF-7 cells; 20 µM", "value": "15.1 ± 3.3", "unit": "%"}, {"measurement": "necrotic cells [%] AV- / PI+", "setting": "MCF-7 cells; 20 µM", "value": "33.8 ± 14.5", "unit": "%"}, {"measurement": "viable cells [%] AV- / PI-", "setting": "MCF-7 cells; 20 µM", "value": "50.2 ± 10.8", "unit": "%"}, {"measurement": "early apoptotic cells [%] AV+ / PI-", "setting": "MCF-7 cells; 50 µM", "value": "0.0 ± 0.0", "unit": "%"}, {"measurement": "late apoptotic cells [%] AV+ / PI+", "setting": "MCF-7 cells; 50 µM", "value": "43.4 ± 3.7", "unit": "%"}, {"measurement": "necrotic cells [%] AV- / PI+", "setting": "MCF-7 cells; 50 µM", "value": "51.5 ± 10.3", "unit": "%"}, {"measurement": "viable cells [%] AV- / PI-", "setting": "MCF-7 cells; 50 µM", "value": "5.0 ± 6.6", "unit": "%"}, {"measurement": "∑apoptotic cells [%]", "setting": "MCF-7 cells; 50 µM", "value": 43.4, "unit": "%"}, {"measurement": "ratio 3D/2D of IC50 values, MCF-7", "setting": "[3]", "value": 7.0}, {"measurement": "IC50", "setting": "[3]; spheroids", "value": "19 ± 2", "unit": "µM"}, {"measurement": "precipitation in PBS", "setting": "[4]", "value": "slowly precipitate out of the solution over time"}]}
